Data: PMC11995724, “Antibiotic target discovery by integrated phenotypic and activity-based profiling of electrophilic fragments” (Cell chemical biology, 2025)
Where a name gives a salt, the structure may show the parent alone.

Test: in vitro
Conditions: human, hek293t cells

Row | SMILES | viability at 48 h, 25 µM [%]
1 | C=CC(=O)N1CCCn2nc(CO)cc2C1 [3-M10, 1-[2-(hydroxymethyl)-4H,5H,6H,7H,8H-pyrazolo[1,5-a][1,4]diazepin-5-yl]prop-2-en-1-one] | 109
2 | C=CC(=O)N(CC)CC(=O)N1CCc2c(cccc2NC(C)=O)C1 [3-K16, N-[2-(5-acetamido-1,2,3,4-tetrahydroisoquinolin-2-yl)-2-oxoethyl]-N-ethylprop-2-enamide] | 90.5
3 | O=C(CCl)Nc1ccc(Cl)c(S(=O)(=O)N2CCCCC2)c1 [4-P14, 2-chloro-N-[4-chloro-3-(piperidine-1-sulfonyl)phenyl]acetamide] | -0.167
4 | COc1cc(OC)c(C(=O)CCl)c(OC)c1 [10-L04, 2-chloro-1-(2,4,6-trimethoxyphenyl)ethan-1-one] | 80.7
5 | O=C(NC1CCCN(C(=O)CCl)C1)c1cc2ccccc2o1 (stereo not drawn) [5-D05, N-[1-(2-chloroacetyl)piperidin-3-yl]-1-benzofuran-2-carboxamide] | 0.852
6 | Cc1ccc(CNC(=O)C(C)Cl)c2ccccc12 (stereo not drawn) [7-O10, 2-chloro-N-[(4-methylnaphthalen-1-yl)methyl]propanamide] | 88.6
7 | C=CC(=O)N1CCC(C(=O)N[C@@H]2CC[C@H](O)C2)(c2ccccc2)CC1 (racemic) [2-H16, rac-N-[(1R,3S)-3-hydroxycyclopentyl]-4-phenyl-1-(prop-2-enoyl)piperidine-4-carboxamide] | 59.9
8 | O=C(CCl)N1N=C(c2ccc3ccccc3c2)CC1c1ccccc1 (stereo not drawn) [4-K22, 2-chloro-1-[3-(naphthalen-2-yl)-5-phenyl-4,5-dihydro-1H-pyrazol-1-yl]ethan-1-one] | -0.201
9 | C=CC(=O)N1CCN(Cc2cc(=O)n3ccsc3n2)CC1 [3-F22, 7-{[4-(prop-2-enoyl)piperazin-1-yl]methyl}-5H-[1,3]thiazolo[3,2-a]pyrimidin-5-one] | 90.5
10 | C=CC(=O)NC(Cc1ccccc1)c1ccccn1 (stereo not drawn) [2-K14, N-[2-phenyl-1-(pyridin-2-yl)ethyl]prop-2-enamide] | 113
11 | Cc1cc(C)cc(OCCN(C)C(=O)CCl)c1 [6-F03, 2-chloro-N-[2-(3,5-dimethylphenoxy)ethyl]-N-methylacetamide] | 0.538
12 | CC(Cl)C(=O)NCCc1nnnn1-c1ccccc1 (stereo not drawn) [7-G17, 2-chloro-N-[2-(1-phenyl-1H-1,2,3,4-tetrazol-5-yl)ethyl]propanamide] | 92.2
13 | CC(Cl)C(=O)NCc1ccon1 (stereo not drawn) [7-I13, 2-chloro-N-[(1,2-oxazol-3-yl)methyl]propanamide] | 94.7
14 | C=CC(=O)Nc1cc(C)n(CC(C)c2nnc3n2CCCCC3)n1 (stereo not drawn) [2-A17, N-[5-methyl-1-(2-{5H,6H,7H,8H,9H-[1,2,4]triazolo[4,3-a]azepin-3-yl}propyl)-1H-pyrazol-3-yl]prop-2-enamide] | 175
15 | CC(Cl)C(=O)N(C)C(C)c1ccccc1N1CCCS1(=O)=O (stereo not drawn) [6-D05, 2-chloro-N-{1-[2-(1,1-dioxo-1lambda6,2-thiazolidin-2-yl)phenyl]ethyl}-N-methylpropanamide] | 104
16 | Cc1ccnc(-c2n[nH]c(C(C)NC(=O)C(C)Cl)n2)c1 (stereo not drawn) [7-I10, 2-chloro-N-{1-[3-(4-methylpyridin-2-yl)-1H-1,2,4-triazol-5-yl]ethyl}propanamide] | 71.1
17 | C=CC(=O)Nc1ccc(C(=O)N(C)C[C@@H]2CCC(=O)N2)cc1 [2-L18, N-methyl-N-{[(2S)-5-oxopyrrolidin-2-yl]methyl}-4-(prop-2-enamido)benzamide] | 98.8
18 | C=CC(=O)N1CCC(C(=O)N(C)CCn2cccn2)CC1 [2-J12, N-methyl-1-(prop-2-enoyl)-N-[2-(1H-pyrazol-1-yl)ethyl]piperidine-4-carboxamide] | 74.5
19 | CN(CC(=O)Nc1ccccc1C(F)(F)F)C(=O)CCl [4-K05, 2-chloro-N-methyl-N-({[2-(trifluoromethyl)phenyl]carbamoyl}methyl)acetamide] | 0.506
20 | Cc1cc(C)cc(-n2c(C)cc(C(=O)CCl)c2C)c1 [10-E04, 2-chloro-1-[1-(3,5-dimethylphenyl)-2,5-dimethyl-1H-pyrrol-3-yl]ethan-1-one] | 19.1
21 | CC(C)c1noc2ncc(C(=O)N3CCSSCC3)cc12 [10-F21, 5-[3-(propan-2-yl)-[1,2]oxazolo[5,4-b]pyridine-5-carbonyl]-1,2,5-dithiazepane] | 86.3
22 | C=CC(=O)N1CCC(C(=O)N[C@H]2CC[C@@H](S(C)(=O)=O)CC2)CC1 [2-J08, 1-(prop-2-enoyl)-N-[(1s,4s)-4-methanesulfonylcyclohexyl]piperidine-4-carboxamide] | 86.3
23 | O=S(=O)(c1cc(Cl)cc(Cl)c1)N1CCSSCC1 [10-J09, 5-(3,5-dichlorobenzenesulfonyl)-1,2,5-dithiazepane] | 102
24 | C=CC(=O)Nc1ccc(N(C)S(=O)(=O)CC)cc1 [3-H06, N-[4-(N-methylethanesulfonamido)phenyl]prop-2-enamide] | 87.8
25 | C=CC(=O)N1CCC(C(=O)NC2(c3ccc(F)cc3F)CCC2)CC1 [3-M04, N-[1-(2,4-difluorophenyl)cyclobutyl]-1-(prop-2-enoyl)piperidine-4-carboxamide] | 97.5
26 | Cc1ccc(C2=NN(C(=O)CCl)C(c3cccs3)C2)cc1 (stereo not drawn) [4-O22, 2-chloro-1-[3-(4-methylphenyl)-5-(thiophen-2-yl)-4,5-dihydro-1H-pyrazol-1-yl]ethan-1-one] | -0.0957

Row | SMILES | viability at 48 h, 25 µM [%]
27 | N#CC(=Cc1ccccc1OC(F)F)C(=O)Nc1ccccc1Cl [9-M21, N-(2-chlorophenyl)-2-cyano-3-[2-(difluoromethoxy)phenyl]prop-2-enamide] | 119
28 | N#CC(C(=O)NC1CCCCC1)=C1N=C(N)c2ccccc21 [9-N06, 2-(3-amino-1H-isoindol-1-ylidene)-2-cyano-N-cyclohexylacetamide] | 80.2
29 | CCN1C(=O)CSC1=C(C#N)C(N)=O [8-M09, 2-cyano-2-(3-ethyl-4-oxo-1,3-thiazolidin-2-ylidene)acetamide] | 90.5
30 | C=CC(=O)Nc1nc2c(s1)-c1cc(OC)ccc1CC2 [1-J21, N-{8-methoxy-4H,5H-naphtho[2,1-d][1,3]thiazol-2-yl}prop-2-enamide] | 118
31 | CC(Cl)C(=O)c1ccc(NS(C)(=O)=O)cc1 (stereo not drawn) [10-A08, N-[4-(2-chloropropanoyl)phenyl]methanesulfonamide] | 93.7
32 | CC(Cl)C(=O)NCc1nnc2n1-c1ccccc1CC2 (stereo not drawn) [6-N14, 2-chloro-N-({4H,5H-[1,2,4]triazolo[4,3-a]quinolin-1-yl}methyl)propanamide] | 110
33 | Cc1ncsc1C=C(C#N)C(=O)NCCc1ccccc1 [9-H06, 2-cyano-3-(4-methyl-1,3-thiazol-5-yl)-N-(2-phenylethyl)prop-2-enamide] | 99.1
34 | C=CC(=O)N[C@H](C)c1cnnn1C [3-B11, N-[(1R)-1-(1-methyl-1H-1,2,3-triazol-5-yl)ethyl]prop-2-enamide] | 73.8
35 | Cc1cccc2nc(C3CCN(C(=O)C(C)Cl)CC3)oc12 (stereo not drawn) [7-M12, 2-chloro-1-[4-(7-methyl-1,3-benzoxazol-2-yl)piperidin-1-yl]propan-1-one] | 79.6
36 | CC1CN(C(=O)C(C)Cl)CC(C)O1 (stereo not drawn) [5-F04, 2-chloro-1-(2,6-dimethylmorpholin-4-yl)propan-1-one] | 96.1
37 | CCOC(=O)c1ccccc1NC(=O)CCl [4-B17, ethyl 2-(2-chloroacetamido)benzoate] | 45.3
38 | O=C(CCl)NCCOc1cccc(Cl)c1 [6-G05, 2-chloro-N-[2-(3-chlorophenoxy)ethyl]acetamide] | 107
39 | C=CC(=O)N1CCOCC1c1noc(C)n1 (stereo not drawn) [3-O11, 1-[3-(5-methyl-1,2,4-oxadiazol-3-yl)morpholin-4-yl]prop-2-en-1-one] | 51.5
40 | CCC(NC(=O)CCl)c1ccc(Cl)cc1 (stereo not drawn) [6-O10, 2-chloro-N-[1-(4-chlorophenyl)propyl]acetamide] | 1.9
41 | O=C(CCl)Nc1cc(Cl)c(Cl)cc1Cl [4-B06, 2-chloro-N-(2,4,5-trichlorophenyl)acetamide] | 0.135
42 | Cc1ccc(C)c(NC(=O)C(C#N)=Cc2ccc3c(c2)OCCO3)c1 [8-L11, 2-cyano-3-(2,3-dihydro-1,4-benzodioxin-6-yl)-N-(2,5-dimethylphenyl)prop-2-enamide] | 96.2
43 | C#CCOc1ccccc1C=C(C#N)C(=O)Nc1ccccc1F [9-C10, 2-cyano-N-(2-fluorophenyl)-3-[2-(prop-2-yn-1-yloxy)phenyl]prop-2-enamide] | 80.4
44 | CC(Cl)C(=O)N1CCN(c2ccccc2)CC1 (stereo not drawn) [4-E14, 2-chloro-1-(4-phenylpiperazin-1-yl)propan-1-one hydrochloride] | 66.3
45 | C=CC(=O)N1CCC(c2nnc(C)o2)CC1 [3-N04, 1-[4-(5-methyl-1,3,4-oxadiazol-2-yl)piperidin-1-yl]prop-2-en-1-one] | 87.3
46 | C=CC(=O)NCCN1C(=O)SC(=Cc2ccc(Cl)cc2)C1=O [2-C05, N-(2-{5-[(4-chlorophenyl)methylidene]-2,4-dioxo-1,3-thiazolidin-3-yl}ethyl)prop-2-enamide] | 87.2
47 | N#CC(C(=O)N1CCCCC1)=C1N=C(N)c2ccccc21 [9-A21, 2-(3-amino-1H-isoindol-1-ylidene)-3-oxo-3-(piperidin-1-yl)propanenitrile] | 102
48 | C=CC(=O)N1Cc2cnn(C)c2C1 [3-P14, 1-{1-methyl-1H,4H,5H,6H-pyrrolo[3,4-c]pyrazol-5-yl}prop-2-en-1-one] | 87.3
49 | C=CC(=O)NCC1OCCc2sc(F)cc21 (stereo not drawn) [2-P09, N-({2-fluoro-4H,6H,7H-thieno[3,2-c]pyran-4-yl}methyl)prop-2-enamide] | 72.3
50 | O=C(CCl)Nc1cc(S(=O)(=O)N2CCCCC2)ccc1Cl [4-F09, 2-chloro-N-[2-chloro-5-(piperidine-1-sulfonyl)phenyl]acetamide] | 0.505
51 | COC(=O)c1ccccc1NC(=O)CCl [5-B12, methyl 2-(2-chloroacetamido)benzoate] | 77.7
